Results on 10 compounds are retold here after patent publication US9499492B2, “4-(ortho)-fluorophenyl-5-fluoropyrimidin-2-yl amines containing a sulfoximine group” (BAYER PHARMA AKTIENGESELLSCHAFT, priority 2012, dated 2016).

The test system of assay [1] is NCI-H460, human non-small cell lung carcinoma cells. Kind of assay: Proliferation assay, NCI-H460 (Method 3). The class given is cell-based. As to conditions: NCI-H460, 4 days, crystal violet, read-out: Inhibition of H460 cell proliferation IC50. As for the experimental part: (§1) After 24 hours, the cells of one plate (zero-point plate) were stained with crystal violet (see below), while the medium of the other plates was replaced by fresh culture medium (200 μl), to which the test substances were added in various concentrations (0 μM, as well as in the range of 0.001-10 μM; the final concentration of the solvent dimethyl sulfoxide was 0.5%). The cells were incubated for 4 days in the presence of test substances. Cell proliferation was determined by staining the cells with crystal violet: the cells were fixed by adding 20 μl/measuring point of an 11% glutaric aldehyde solution for 15 minutes at room temperature. After three washing cycles of the fixed cells with water, the plates were dried at room temperature. The cells were stained by adding 100 μl/measuring point of a 0.1% crystal violet solution (pH 3.0). After three washing cycles of the stained cells with water, the plates were dried at room temperature. The dye was dissolved by adding 100 μl/measuring point of a 10% acetic acid solution. The extinction was determined by photometry at a wavelength of 595 nm. The change of cell number, in percent, was calculated by normalization of the measured values to the extinction values of the zero-point plate (=0%) and the extinction of the untreated (0 μm) cells (=100%).

In assay [2] the test system is Caco-2, human colorectal carcinoma cells. Kind of assay: Proliferation assay, Caco-2 (Method 3). The assay is classed as cell-based. As to conditions: Caco-2, 4 days, crystal violet, read-out: Inhibition of Caco-2 cell proliferation IC50. As for the experimental part:
as §1

In a further assay the target is CDK2/CycE (Homo sapiens (Human), UniProt P24941). Kind of assay: CDK2/CycE kinase assay (Method 2). The class given is biochemical. Conditions: 10 μM ATP.
In assay [3] the test system is A2780, human ovarian carcinoma cells. Kind of assay: Proliferation assay, A2780 (Method 3). As to conditions: A2780, 4 days, crystal violet, read-out: Inhibition of A2780 cell proliferation IC50. The class given is cell-based. In outline:
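Cells were seeded and, after 24 h, exposed to compounds at 0.001–10 µM (final DMSO 0.5%) for 4 days. Cell number was measured by glutaraldehyde fixation, crystal violet staining and absorbance at 595 nm. Values were normalised to a zero-point plate (0%) and untreated cells (100%).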

The subject of assay [4] is HeLa-MaTu-ADR, multidrug-resistant human cervical carcinoma cells. Kind of assay: Proliferation assay, HeLa-MaTu-ADR (Method 3). The class given is cell-based. As to conditions: 4 days, crystal violet, read-out: Inhibition of HeLa-MaTu-ADR cell proliferation IC50. As for the experimental part:
as §1

Assay [5] has as its system DU 145, hormone-independent human prostate carcinoma cells. Kind of assay: Proliferation assay, DU 145 (Method 3). The class given is cell-based. Conditions: DU145, 4 days, crystal violet, read-out: Inhibition of DU145 cell proliferation IC50. As for the experimental part: as §1
The target of another assay is CDK9/CycT1 (Homo sapiens (Human), UniProt P50750). Kind of assay: CDK9/CycT1 high ATP kinase assay (Method 1b). As to conditions: 2 mM ATP. The class given is biochemical. In outline:
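Full-length His-tagged human CDK9/CycT1 (insect cells, ~0.5 μg/ml) pre-incubated 15 min at 22 °C with compound in Tris pH 8.0/MgCl2/DTT buffer; biotinylated peptide substrate, high ATP. After detection reagents, 1 h at 22 °C; TR-FRET 665/620 nm emission ratio (350 nm excitation) measured phosphorylation.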

Like-named read-outs stand apart in the source and are kept apart here.

Sequence of CDK9/CycT1 (P50750 whole entry): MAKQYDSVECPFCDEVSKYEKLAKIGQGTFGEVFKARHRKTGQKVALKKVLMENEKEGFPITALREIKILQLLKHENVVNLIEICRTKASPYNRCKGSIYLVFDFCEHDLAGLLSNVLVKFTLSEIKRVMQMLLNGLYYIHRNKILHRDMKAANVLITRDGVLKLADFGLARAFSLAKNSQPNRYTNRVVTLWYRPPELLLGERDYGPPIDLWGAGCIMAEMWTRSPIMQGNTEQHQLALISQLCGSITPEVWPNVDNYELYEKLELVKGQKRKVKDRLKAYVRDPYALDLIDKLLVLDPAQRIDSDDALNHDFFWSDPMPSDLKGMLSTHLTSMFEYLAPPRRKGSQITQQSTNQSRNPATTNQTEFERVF
Sequence of CDK9/CycT1 (O60563 whole entry partner): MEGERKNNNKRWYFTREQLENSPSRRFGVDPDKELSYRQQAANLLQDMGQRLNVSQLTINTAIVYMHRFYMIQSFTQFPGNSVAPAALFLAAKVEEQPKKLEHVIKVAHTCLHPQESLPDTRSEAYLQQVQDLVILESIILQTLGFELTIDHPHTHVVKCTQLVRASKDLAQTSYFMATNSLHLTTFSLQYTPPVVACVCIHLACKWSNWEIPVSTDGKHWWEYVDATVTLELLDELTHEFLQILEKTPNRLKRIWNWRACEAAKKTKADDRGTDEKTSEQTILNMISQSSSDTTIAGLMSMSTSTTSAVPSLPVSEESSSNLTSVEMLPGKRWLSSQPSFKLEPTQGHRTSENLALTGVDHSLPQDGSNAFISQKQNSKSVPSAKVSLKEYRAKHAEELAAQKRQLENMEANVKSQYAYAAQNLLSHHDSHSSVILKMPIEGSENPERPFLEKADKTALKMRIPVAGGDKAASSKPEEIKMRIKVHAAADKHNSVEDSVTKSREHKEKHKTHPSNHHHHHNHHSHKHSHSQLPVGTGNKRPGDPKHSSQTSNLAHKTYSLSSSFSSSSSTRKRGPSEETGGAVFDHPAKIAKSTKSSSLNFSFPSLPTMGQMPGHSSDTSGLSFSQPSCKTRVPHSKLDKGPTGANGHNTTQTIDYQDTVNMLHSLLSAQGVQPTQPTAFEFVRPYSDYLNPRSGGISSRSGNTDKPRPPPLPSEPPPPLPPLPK

Take `CS(=N)(=O)Cc1cc(Nc2ncc(F)c(-c3ccc(F)cc3F)n2)cc(S(F)(F)(F)(F)F)c1` (single isomer, unassigned) [Example 32, 4-(2,4-Difluorophenyl)-5-fluoro-N-{3-[(S-methylsulfonimidoyl)methyl]-5-(pentafluoro-λ^6-sulfanyl)phenyl}pyrimidin-2-amine]: the IC50 in assay [1] (Homo sapiens, NCI-H460, 96 h) worked out at 0.483 µM; in assay [2] (Homo sapiens, Caco-2, 96 h) it was 0.282 µM; against CDK2/CycE, 1.6 µM; in assay [3], 0.268 µM; in assay [4] (Homo sapiens, 96 h), 0.304 µM; in assay [5] (Homo sapiens, DU-145, 96 h) it was 0.397 µM. Besides, on CDK9/CycT1, the IC50 came out at 0.006 µM.
With `CS(=O)(Cc1cc(Nc2ncc(F)c(-c3ccc(F)cc3F)n2)cc(S(F)(F)(F)(F)F)c1)=NC(N)=O` (single isomer, unassigned) [Example 33, 1-{[3-{[4-(2,4-Difluorophenyl)-5-fluoropyrimidin-2-yl]amino}-5-(pentafluoro-λ^6-sulfanyl)benzyl](methyl)oxido-λ^6-sulfanylidene}urea], the IC50 is 0.675 µM in assay [1]; 0.716 µM in assay [2]; 1.6 µM on CDK2/CycE; 0.246 µM in assay [3]; 0.495 µM in assay [4]; 0.507 µM in assay [5]. Also, the IC50 against CDK9/CycT1 was found to be 0.099 µM.
Turning to `CS(=O)(Cc1cc(Nc2ncc(F)c(-c3ccc(F)cc3F)n2)cc(C(F)(F)F)c1)=NC#N` (single isomer, unassigned) [Example 2, {[3-{[4-(2,4-Difluorophenyl)-5-fluoropyrimidin-2-yl]amino}-5-(trifluoromethyl)benzyl](methyl)oxido-λ^6-sulfanylidene}cyanamide], the IC50 was 0.36 µM in assay [1] (Homo sapiens, NCI-H460, 96 h); 0.3 µM in assay [2] (Homo sapiens, Caco-2, 96 h); 1.2 µM against CDK2/CycE; 0.13 µM in assay [3] (Homo sapiens, A2780, 96 h); 0.32 µM in assay [4] (Homo sapiens, 96 h); 0.31 µM in assay [5] (Homo sapiens, DU-145, 96 h). For the same compound, on CDK9/CycT1, the IC50 came to 0.029 µM.
Turning to `CS(=O)(Cc1cc(Nc2ncc(F)c(-c3ccc(F)cc3F)n2)cc(S(F)(F)(F)(F)F)c1)=NC#N` (racemic) [Example 28, (rac)-{[3-{[4-(2,4-Difluorophenyl)-5-fluoropyrimidin-2-yl]amino}-5-(pentafluoro-λ^6-sulfanyl)benzyl](methyl)oxido-λ^6-sulfanylidene}cyanamide], the IC50 in assay [1] (Homo sapiens, NCI-H460, 96 h) was 0.359 µM; in assay [2] (Homo sapiens, Caco-2, 96 h), 0.222 µM; on CDK2/CycE, 1.3 µM; in assay [3] (Homo sapiens, A2780, 96 h), 0.185 µM; in assay [4] (Homo sapiens, 96 h) it was 0.12 µM; in assay [5] (Homo sapiens, DU-145, 96 h), 0.311 µM. Also, at CDK9/CycT1, the IC50 was 0.005 µM.
`CS(=N)(=O)Cc1cc(Nc2ncc(F)c(-c3ccc(F)cc3F)n2)cc(C(F)(F)F)c1` (racemic) [Example 4, (rac)-4-(2,4-Difluorophenyl)-5-fluoro-N-{3-[(S-methylsulfonimidoyl)methyl]-5-(trifluoromethyl)phenyl}pyrimidin-2-amine]: the results for the IC50 against CDK2/CycE and on CDK9/CycT1 were 0.88 µM and 0.251 µM, respectively.
Taken in the same sequence, the figures for `CS(=O)(Cc1cc(Nc2ncc(F)c(-c3ccc(F)cc3F)n2)cc(C(F)(F)F)c1)=NC(N)=O` (racemic) [Example 7, (rac)-1-{[3-{[4-(2,4-Difluorophenyl)-5-fluoropyrimidin-2-yl]amino}-5-(trifluoromethyl)benzyl](methyl)oxido-λ^6-sulfanylidene}urea] were 1.1 µM and 0.105 µM.
Turning to `CS(=O)(Cc1cc(Nc2ncc(F)c(-c3ccc(F)cc3F)n2)cc(C(F)(F)F)c1)=NC(N)=O` (single isomer, unassigned) [Example 23, 1-{[3-{[4-(2,4-Difluorophenyl)-5-fluoropyrimidin-2-yl]amino}-5-(trifluoromethyl)benzyl](methyl)oxido-λ^6-sulfanylidene}urea], the IC50 in assay [1] (Homo sapiens, NCI-H460, 96 h) was 0.35 µM; in assay [2] (Homo sapiens, Caco-2, 96 h), 0.23 µM; on CDK2/CycE, 0.37 µM; in assay [3], 0.97 µM; in assay [4] (Homo sapiens, 96 h), 0.2 µM; in assay [5] (Homo sapiens, DU-145, 96 h), 0.25 µM. Also, the IC50 at CDK9/CycT1 came out at 0.016 µM.
With `CS(=N)(=O)Cc1cc(Cl)cc(Nc2ncc(F)c(-c3ccc(F)cc3F)n2)c1` (racemic) [Example 15, (rac)-N-{3-chloro-5-[(S-methylsulfonimidoyl)methyl]phenyl}-4-(2,4-difluorophenyl)-5-fluoropyrimidin-2-amine], the IC50 on CDK2/CycE was found to be 0.63 µM; in assay [3] (Homo sapiens, A2780, 96 h), 0.11 µM; on CDK9/CycT1, 0.892 µM.
With `CS(=O)(Cc1cc(Nc2ncc(F)c(-c3ccc(F)cc3F)n2)cc(C(F)(F)F)c1)=NC#N` (single isomer, unassigned) [Example 3, {[3-{[4-(2,4-Difluorophenyl)-5-fluoropyrimidin-2-yl]amino}-5-(trifluoromethyl)benzyl](methyl)oxido-λ^6-sulfanylidene}cyanamide], the IC50 in assay [1] was 0.34 µM; in assay [2] it was 0.3 µM; at CDK2/CycE it was 1.3 µM; in assay [3], 0.26 µM; in assay [4], 0.2 µM; in assay [5] it was 0.37 µM. The compound further returned an IC50 against CDK9/CycT1 of 0.032 µM.
For `CS(=O)(Cc1cc(Nc2ncc(F)c(-c3ccc(F)cc3F)n2)cc(C(F)(F)F)c1)=NC#N` (racemic) [Example 1, (rac)-{[3-{[4-(2,4-Difluorophenyl)-5-fluoropyrimidin-2-yl]amino}-5-(trifluoromethyl)benzyl](methyl)oxido-λ^6-sulfanylidene}cyanamide], the IC50 against CDK2/CycE stood at 1.4 µM; against CDK9/CycT1 it was 0.039 µM.
